Assay results taken from publication PMC9851200, “Multiparameter phenotypic screening for endogenous TFEB and TFE3 translocation identifies novel chemical series modulating lysosome function” (Autophagy, 2022).

Columns and labels:
Assay type in all cases: binding
[1] = target: kinases (KINOMEscan panel) (Homo sapiens, UniProt O95819); conditions: MAP4K4; NEW KINOMEscan
[2] = target: kinases (KINOMEscan panel) (Homo sapiens, UniProt Q52WX2); conditions: SBK1; NEW KINOMEscan
[3] = target: kinases (KINOMEscan panel) (Homo sapiens, UniProt P42336, M1043I); conditions: NEW KINOMEscan
[4] = target: kinases (KINOMEscan panel) (Homo sapiens, UniProt Q15746); conditions: kinase MYLK; NEW KINOMEscan
[5] = target: kinases (KINOMEscan panel) (Homo sapiens, UniProt Q9H2X6); conditions: NEW KINOMEscan
[6] = target: kinases (KINOMEscan panel) (Homo sapiens, UniProt Q00532); conditions: CDKL1; NEW KINOMEscan
[7] = target: kinases (KINOMEscan panel) (Homo sapiens, UniProt P36888, K663Q); conditions: kinase FLT3(K663Q); NEW KINOMEscan
[8] = target: kinases (KINOMEscan panel) (Homo sapiens, UniProt O94921); conditions: NEW KINOMEscan
[9] = target: kinases (KINOMEscan panel) (Homo sapiens, UniProt Q06187); conditions: kinase BTK; NEW KINOMEscan
[10] = target: T1, kinases (KINOMEscan panel) (Homo sapiens, UniProt Q99759); conditions: MAP3K3; NEW KINOMEscan
T1 sequence (Q99759 1-626): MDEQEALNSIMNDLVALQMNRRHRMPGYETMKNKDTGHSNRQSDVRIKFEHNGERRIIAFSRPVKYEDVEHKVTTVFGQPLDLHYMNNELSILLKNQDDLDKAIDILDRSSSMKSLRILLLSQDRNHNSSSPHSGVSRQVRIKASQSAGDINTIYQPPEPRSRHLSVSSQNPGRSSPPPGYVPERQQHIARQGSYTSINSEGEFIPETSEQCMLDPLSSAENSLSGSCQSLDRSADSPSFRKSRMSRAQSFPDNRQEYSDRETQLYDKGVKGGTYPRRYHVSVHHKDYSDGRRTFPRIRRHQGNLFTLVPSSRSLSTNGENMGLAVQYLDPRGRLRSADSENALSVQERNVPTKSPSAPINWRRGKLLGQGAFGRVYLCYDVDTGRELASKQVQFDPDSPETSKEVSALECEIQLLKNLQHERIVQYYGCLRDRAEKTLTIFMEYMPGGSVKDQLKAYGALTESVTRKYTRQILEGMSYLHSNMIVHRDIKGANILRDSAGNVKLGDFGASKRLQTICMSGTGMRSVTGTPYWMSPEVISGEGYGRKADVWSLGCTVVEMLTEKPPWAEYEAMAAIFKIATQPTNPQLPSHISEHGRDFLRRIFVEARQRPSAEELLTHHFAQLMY

[11] = target: T2, kinases (KINOMEscan panel) (Homo sapiens, UniProt P54762); conditions: kinase EPHB1; NEW KINOMEscan
T2 sequence (P54762 18-984): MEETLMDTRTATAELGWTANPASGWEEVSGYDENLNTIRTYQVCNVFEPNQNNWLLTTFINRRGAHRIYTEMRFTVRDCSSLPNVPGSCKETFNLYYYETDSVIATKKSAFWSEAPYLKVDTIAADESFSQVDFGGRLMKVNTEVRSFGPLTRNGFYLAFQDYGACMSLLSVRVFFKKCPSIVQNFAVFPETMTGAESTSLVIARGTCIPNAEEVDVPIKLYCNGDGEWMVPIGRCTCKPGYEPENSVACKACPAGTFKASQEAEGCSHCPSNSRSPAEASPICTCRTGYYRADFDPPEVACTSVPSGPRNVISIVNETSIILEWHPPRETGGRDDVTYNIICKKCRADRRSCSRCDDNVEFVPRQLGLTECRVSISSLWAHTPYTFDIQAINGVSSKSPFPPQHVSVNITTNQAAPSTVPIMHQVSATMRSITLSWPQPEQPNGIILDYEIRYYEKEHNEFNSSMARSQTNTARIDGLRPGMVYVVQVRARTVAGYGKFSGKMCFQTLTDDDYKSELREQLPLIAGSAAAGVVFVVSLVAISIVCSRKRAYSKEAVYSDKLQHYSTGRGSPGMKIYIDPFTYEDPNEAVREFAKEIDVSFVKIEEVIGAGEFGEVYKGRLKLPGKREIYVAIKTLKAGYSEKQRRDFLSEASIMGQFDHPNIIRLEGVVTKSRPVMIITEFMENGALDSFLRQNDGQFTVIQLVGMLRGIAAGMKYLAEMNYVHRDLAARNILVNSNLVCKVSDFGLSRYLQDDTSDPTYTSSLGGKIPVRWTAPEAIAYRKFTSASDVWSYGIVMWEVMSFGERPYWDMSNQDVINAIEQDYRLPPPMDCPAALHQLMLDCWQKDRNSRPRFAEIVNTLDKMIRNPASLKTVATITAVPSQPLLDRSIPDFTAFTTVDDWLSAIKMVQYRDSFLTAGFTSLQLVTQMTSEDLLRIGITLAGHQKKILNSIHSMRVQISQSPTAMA

kinases (KINOMEscan panel) (Homo sapiens, UniProt Q9H2X6), sequence (Q9H2X6 whole entry): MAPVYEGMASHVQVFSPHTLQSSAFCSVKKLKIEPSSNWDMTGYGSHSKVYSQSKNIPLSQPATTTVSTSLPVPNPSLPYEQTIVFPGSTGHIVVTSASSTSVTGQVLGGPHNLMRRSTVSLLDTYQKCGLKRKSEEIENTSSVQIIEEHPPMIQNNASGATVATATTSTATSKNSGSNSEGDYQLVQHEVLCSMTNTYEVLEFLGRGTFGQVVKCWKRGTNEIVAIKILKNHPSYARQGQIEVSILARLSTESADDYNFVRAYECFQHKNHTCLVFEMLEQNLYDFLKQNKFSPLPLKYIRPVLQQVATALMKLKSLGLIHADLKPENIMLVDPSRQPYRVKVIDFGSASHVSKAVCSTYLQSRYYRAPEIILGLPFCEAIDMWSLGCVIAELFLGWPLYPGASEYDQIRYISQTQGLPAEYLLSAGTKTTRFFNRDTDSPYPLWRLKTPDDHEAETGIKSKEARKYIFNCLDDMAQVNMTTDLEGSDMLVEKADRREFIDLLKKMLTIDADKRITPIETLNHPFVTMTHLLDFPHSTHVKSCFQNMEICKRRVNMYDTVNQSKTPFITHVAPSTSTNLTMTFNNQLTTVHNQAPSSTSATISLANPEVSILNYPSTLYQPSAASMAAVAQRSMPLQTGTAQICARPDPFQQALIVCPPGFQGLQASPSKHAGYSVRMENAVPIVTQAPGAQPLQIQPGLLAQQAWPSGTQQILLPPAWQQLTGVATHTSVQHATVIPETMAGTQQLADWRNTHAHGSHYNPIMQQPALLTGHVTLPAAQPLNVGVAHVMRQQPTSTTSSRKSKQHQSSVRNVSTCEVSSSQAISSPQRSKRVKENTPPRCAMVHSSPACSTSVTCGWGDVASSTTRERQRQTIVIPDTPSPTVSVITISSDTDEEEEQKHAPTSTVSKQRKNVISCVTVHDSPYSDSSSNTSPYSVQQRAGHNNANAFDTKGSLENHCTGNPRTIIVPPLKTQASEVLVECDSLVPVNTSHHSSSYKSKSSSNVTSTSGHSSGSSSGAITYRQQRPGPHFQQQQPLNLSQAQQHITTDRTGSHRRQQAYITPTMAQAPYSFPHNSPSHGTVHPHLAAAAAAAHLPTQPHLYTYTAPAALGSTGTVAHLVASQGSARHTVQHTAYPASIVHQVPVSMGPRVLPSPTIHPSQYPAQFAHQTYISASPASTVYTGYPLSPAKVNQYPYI
kinases (KINOMEscan panel) (Homo sapiens, UniProt Q00532), sequence (Q00532 whole entry): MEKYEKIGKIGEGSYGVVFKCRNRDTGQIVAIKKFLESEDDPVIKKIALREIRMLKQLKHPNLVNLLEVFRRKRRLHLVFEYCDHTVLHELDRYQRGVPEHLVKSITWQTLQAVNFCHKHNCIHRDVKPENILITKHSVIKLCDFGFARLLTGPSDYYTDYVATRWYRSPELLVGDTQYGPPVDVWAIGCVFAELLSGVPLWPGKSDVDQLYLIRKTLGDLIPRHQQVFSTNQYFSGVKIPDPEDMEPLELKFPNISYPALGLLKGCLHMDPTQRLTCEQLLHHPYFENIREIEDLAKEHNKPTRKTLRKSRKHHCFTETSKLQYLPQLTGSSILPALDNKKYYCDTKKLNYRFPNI
kinases (KINOMEscan panel) (Homo sapiens, UniProt O95819), sequence (O95819 whole entry): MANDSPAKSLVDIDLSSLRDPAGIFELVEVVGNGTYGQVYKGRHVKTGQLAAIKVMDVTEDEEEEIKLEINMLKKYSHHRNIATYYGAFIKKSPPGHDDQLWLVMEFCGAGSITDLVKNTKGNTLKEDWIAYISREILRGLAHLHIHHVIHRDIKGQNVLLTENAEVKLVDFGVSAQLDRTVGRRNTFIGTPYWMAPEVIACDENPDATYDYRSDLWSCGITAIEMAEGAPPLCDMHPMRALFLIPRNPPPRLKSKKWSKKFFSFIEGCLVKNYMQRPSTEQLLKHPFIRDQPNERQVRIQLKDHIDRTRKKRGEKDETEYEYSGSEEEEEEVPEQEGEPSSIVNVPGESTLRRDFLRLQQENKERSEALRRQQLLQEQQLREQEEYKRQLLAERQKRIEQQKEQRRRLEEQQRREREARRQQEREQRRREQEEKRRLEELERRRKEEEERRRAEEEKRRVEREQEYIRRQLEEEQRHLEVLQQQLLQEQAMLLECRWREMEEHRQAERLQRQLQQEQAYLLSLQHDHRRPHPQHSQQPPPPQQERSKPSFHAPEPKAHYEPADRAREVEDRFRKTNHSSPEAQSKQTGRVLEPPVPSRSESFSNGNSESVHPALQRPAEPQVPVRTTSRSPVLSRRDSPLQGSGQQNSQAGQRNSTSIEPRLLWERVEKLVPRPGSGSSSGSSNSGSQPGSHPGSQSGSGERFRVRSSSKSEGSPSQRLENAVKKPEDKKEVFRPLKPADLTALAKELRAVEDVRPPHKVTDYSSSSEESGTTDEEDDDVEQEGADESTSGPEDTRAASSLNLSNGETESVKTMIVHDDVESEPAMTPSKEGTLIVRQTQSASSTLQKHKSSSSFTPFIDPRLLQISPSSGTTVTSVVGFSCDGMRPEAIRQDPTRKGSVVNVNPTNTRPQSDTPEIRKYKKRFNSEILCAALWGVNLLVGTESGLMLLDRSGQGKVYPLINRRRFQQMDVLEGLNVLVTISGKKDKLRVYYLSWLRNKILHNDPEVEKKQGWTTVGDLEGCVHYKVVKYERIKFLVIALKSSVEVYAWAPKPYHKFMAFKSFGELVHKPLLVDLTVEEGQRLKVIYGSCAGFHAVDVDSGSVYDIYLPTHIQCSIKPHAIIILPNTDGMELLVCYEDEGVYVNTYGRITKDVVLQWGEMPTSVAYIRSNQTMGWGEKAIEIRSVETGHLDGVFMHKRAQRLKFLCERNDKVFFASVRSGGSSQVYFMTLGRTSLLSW
kinases (KINOMEscan panel) (Homo sapiens, UniProt Q06187), sequence (Q06187 whole entry): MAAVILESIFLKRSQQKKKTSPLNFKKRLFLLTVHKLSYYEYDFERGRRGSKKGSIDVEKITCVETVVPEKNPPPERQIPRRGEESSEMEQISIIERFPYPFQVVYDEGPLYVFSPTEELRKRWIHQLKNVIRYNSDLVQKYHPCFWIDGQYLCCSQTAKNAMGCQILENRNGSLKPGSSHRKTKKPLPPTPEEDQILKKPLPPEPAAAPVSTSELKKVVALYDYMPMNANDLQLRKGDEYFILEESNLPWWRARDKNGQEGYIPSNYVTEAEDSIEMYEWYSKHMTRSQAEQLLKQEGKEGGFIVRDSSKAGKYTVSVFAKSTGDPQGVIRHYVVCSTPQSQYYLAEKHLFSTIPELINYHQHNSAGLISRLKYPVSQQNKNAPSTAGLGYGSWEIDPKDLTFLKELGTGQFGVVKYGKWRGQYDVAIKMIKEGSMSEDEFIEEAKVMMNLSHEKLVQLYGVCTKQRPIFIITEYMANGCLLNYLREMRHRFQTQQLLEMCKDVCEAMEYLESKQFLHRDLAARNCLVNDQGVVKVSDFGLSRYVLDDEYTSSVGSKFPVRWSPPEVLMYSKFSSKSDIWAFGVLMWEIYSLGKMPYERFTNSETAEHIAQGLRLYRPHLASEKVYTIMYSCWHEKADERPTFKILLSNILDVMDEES
kinases (KINOMEscan panel) (Homo sapiens, UniProt P42336, M1043I), sequence (P42336 whole entry M1043I): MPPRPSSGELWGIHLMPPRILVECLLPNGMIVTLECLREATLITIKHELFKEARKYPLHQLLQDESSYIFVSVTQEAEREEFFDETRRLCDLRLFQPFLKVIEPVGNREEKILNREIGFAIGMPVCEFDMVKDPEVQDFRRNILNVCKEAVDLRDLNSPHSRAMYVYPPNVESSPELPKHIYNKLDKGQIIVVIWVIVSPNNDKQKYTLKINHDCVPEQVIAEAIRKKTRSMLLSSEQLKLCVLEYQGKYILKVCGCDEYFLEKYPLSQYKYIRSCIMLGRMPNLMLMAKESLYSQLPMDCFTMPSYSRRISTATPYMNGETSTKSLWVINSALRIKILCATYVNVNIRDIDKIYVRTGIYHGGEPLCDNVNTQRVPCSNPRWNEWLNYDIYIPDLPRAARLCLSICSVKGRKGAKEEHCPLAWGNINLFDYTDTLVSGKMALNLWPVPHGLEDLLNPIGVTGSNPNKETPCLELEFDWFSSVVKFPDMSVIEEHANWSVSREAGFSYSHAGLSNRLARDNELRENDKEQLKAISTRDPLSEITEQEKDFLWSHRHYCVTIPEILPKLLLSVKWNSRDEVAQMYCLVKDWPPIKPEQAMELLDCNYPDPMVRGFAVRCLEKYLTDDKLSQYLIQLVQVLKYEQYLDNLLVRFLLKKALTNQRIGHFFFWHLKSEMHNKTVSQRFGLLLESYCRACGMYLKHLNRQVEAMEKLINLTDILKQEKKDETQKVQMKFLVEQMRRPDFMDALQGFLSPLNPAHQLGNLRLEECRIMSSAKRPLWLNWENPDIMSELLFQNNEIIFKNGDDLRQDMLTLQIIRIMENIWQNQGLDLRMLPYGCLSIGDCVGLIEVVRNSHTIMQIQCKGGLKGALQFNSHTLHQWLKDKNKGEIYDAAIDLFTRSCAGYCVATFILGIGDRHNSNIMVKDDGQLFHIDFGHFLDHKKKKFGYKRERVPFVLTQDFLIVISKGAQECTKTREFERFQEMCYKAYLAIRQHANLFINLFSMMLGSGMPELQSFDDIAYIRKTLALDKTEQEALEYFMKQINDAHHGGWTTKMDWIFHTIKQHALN
kinases (KINOMEscan panel) (Homo sapiens, UniProt Q52WX2), sequence (Q52WX2 whole entry): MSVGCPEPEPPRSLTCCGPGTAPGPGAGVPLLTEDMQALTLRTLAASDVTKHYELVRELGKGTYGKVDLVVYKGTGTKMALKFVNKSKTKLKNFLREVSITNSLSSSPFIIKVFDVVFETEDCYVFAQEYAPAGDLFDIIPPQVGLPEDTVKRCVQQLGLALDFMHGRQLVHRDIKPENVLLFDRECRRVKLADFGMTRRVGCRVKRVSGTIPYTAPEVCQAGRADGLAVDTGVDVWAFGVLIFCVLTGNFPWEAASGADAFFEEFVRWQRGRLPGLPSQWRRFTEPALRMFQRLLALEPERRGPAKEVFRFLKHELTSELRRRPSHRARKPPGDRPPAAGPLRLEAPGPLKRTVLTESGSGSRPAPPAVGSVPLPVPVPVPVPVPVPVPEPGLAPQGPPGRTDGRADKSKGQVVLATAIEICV

SMILES | KINOMEscan MAP4K4 [1] | KINOMEscan SBK1 [2] | KINOMEscan PIK3CA(M1043I) [3] | KINOMEscan MYLK [4] | KINOMEscan HIPK2 [5] | KINOMEscan CDKL1 [6] | KINOMEscan FLT3(K663Q) [7] | KINOMEscan CDK14 [8] | KINOMEscan BTK [9] | KINOMEscan MAP3K3 [10] | KINOMEscan EPHB1 [11]
Cc1cccc(-c2nc(Nc3ccc4nn(C)cc4c3)c3ccccc3n2)n1 [NK167] | 1 | 0 | 17 | 19 | 33 | 44 | 0 | 17 | 0 | 0 | 0
Cc1cccc(-c2nc(N(C)c3ccc4ncsc4c3)c3ccccc3n2)n1 [NK-161] | 0 | 0 | 10 | 3 | 28 | 36 | 0 | 0 | 10 | 0 | 14
